In patent US4570006A, “Amidine compound, process for producing same and anti-complement agent comprising same” (Torii & Co. Ltd., priority 1981, dated 1986):
One block for each compound: values may come before it.

Experiments:
[1] = tested on: complement; assay: Inhibition of complement mediated hemolysis; assay type: cell-based
Description: The complement mediated hemolysis is widely used as a means to determine the titration of complement. The principle of this method is based on the fact that hemolysis if caused by the activation of complement, when the latter is added to a complex (immune complex) of erythrocytes and the antibody thereof. The degree of hemolysis varies in proportion to the amount of complement added. Therefore, when a known amount of complement admixed with a Cl esterase inhibitor is used, the hemolysis must be suppressed in proportion to the inhibitory activity.
The anti-Cl esterase (Clr, Cls) activity was determined according to the method of Okamura et al. [K. Okamura, M. Muramatsu and B. Fujii, Biochem. Biophys. […] The figures in Table 2 have the following meanings: […]

[2] = target: T1, Clr (Homo sapiens, UniProt P00736); assay: Anti-Cl esterase activity, Clr (AAME hydrolysis); assay type: biochemical; conditions: hydrolysis of AAME; read-out: Anti-Cl activity, Clr (ID50)
T1 sequence (P00736 464-705 limits assumed): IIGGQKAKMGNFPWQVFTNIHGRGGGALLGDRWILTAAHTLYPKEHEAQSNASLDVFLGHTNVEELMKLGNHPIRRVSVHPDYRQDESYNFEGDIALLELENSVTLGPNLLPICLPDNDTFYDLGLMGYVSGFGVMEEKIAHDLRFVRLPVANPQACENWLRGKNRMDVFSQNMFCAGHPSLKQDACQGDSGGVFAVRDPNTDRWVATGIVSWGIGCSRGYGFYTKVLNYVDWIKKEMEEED
T1 sequence (P00736 18-463 limits assumed): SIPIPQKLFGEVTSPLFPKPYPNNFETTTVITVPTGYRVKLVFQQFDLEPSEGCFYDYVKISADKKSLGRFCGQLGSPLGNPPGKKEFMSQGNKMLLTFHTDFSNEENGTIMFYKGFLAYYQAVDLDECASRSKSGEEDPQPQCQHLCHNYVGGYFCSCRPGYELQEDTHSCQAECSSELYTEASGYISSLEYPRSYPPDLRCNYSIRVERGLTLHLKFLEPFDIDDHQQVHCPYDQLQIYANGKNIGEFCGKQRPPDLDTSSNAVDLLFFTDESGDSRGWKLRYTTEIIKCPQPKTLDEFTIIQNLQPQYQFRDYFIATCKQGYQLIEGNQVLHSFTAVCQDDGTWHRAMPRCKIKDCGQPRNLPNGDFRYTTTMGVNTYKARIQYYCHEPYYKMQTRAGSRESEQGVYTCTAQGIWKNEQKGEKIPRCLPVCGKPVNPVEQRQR
Description: The anti-Cl esterase ([…]) activity was determined according to the method of Okamura et al. [K. Okamura, M. Muramatsu and B. Fujii, Biochem. Biophys.

SMILES: COc1cc(C(=N)N)ccc1OC(=O)CCCc1ccc(N)cc1 [Compound 65, 4-amidino-2-methoxyphenyl 4-(4-aminophenyl)butyrate]
Inhibition of complement mediated hemolysis (%) ([1]; compound at 1 × 10^-4): 81.7% | Inhibition of complement mediated hemolysis (%) ([1]; compound at 1 × 10^-5): 9.8% | Inhibition of complement mediated hemolysis (%) ([1]; compound at 1 × 10^-6): 0% | Inhibition of complement mediated hemolysis (%) ([1]; compound at 1 × 10^-7): 0%

SMILES: CC(=O)Oc1ccc(CCC(=O)Oc2ccc(C(=N)N)cc2C(=O)c2ccccc2)cc1 [Compound 55, 4-amidino-2-benzoylphenyl 3-(4-acetyloxy)phenylpropionate]
Inhibition of complement mediated hemolysis (%) ([1]; compound at 1 × 10^-4): 100% | Inhibition of complement mediated hemolysis (%) ([1]; compound at 1 × 10^-5): 96.9% | Inhibition of complement mediated hemolysis (%) ([1]; compound at 1 × 10^-6): 60.8% | Inhibition of complement mediated hemolysis (%) ([1]; compound at 1 × 10^-7): 3.5%

SMILES: N=C(N)c1ccc(OC(=O)c2ccc(CNC(=O)OCc3ccccc3)cc2)c(C(=O)c2ccccc2)c1 [Compound 63]
Inhibition of complement mediated hemolysis (%) ([1]; compound at 1 × 10^-4): 100% | Inhibition of complement mediated hemolysis (%) ([1]; compound at 1 × 10^-5): 100% | Inhibition of complement mediated hemolysis (%) ([1]; compound at 1 × 10^-6): 98.0% | Inhibition of complement mediated hemolysis (%) ([1]; compound at 1 × 10^-7): 94.5%

SMILES: COc1cccc(CC(=O)Oc2ccc(C(=N)N)cc2OC)c1 [Compound 43]
Inhibition of complement mediated hemolysis (%) ([1]; compound at 1 × 10^-4): 95.0% | Inhibition of complement mediated hemolysis (%) ([1]; compound at 1 × 10^-5): 50.4% | Inhibition of complement mediated hemolysis (%) ([1]; compound at 1 × 10^-6): 3.7% | Inhibition of complement mediated hemolysis (%) ([1]; compound at 1 × 10^-7): 0%

SMILES: COc1cc(C(=N)N)ccc1OC(=O)CC(C)C [Compound 3, 4-amidino-2-methoxyphenyl isovalerate]
Inhibition of complement mediated hemolysis (%) ([1]; compound at 1 × 10^-4): 44.4% | Inhibition of complement mediated hemolysis (%) ([1]; compound at 1 × 10^-5): 5.0% | Inhibition of complement mediated hemolysis (%) ([1]; compound at 1 × 10^-6): 18.0% | Inhibition of complement mediated hemolysis (%) ([1]; compound at 1 × 10^-7): 0%

SMILES: N=C(N)c1ccc(OC(=O)c2ccc(CN)cc2)c(C(=O)c2ccccc2)c1 [Compound 64]
Inhibition of complement mediated hemolysis (%) ([1]; compound at 1 × 10^-4): 100% | Inhibition of complement mediated hemolysis (%) ([1]; compound at 1 × 10^-5): 100% | Inhibition of complement mediated hemolysis (%) ([1]; compound at 1 × 10^-6): 97.1% | Inhibition of complement mediated hemolysis (%) ([1]; compound at 1 × 10^-7): 75.7%

SMILES: COc1cc(C(=N)N)ccc1OC(=O)CCc1ccccc1 [Compound 32, 4-amidino-2-methoxyphenyl 3-phenylpropionate]
Inhibition of complement mediated hemolysis (%) ([1]; compound at 1 × 10^-4): 63.9% | Inhibition of complement mediated hemolysis (%) ([1]; compound at 1 × 10^-5): 97.5% | Inhibition of complement mediated hemolysis (%) ([1]; compound at 1 × 10^-6): 7.1% | Inhibition of complement mediated hemolysis (%) ([1]; compound at 1 × 10^-7): 0%

SMILES: N=C(N)NCCCCCC(=O)Oc1ccc(C(=N)N)cc1C(=O)c1ccccc1 [Compound 15]
Inhibition of complement mediated hemolysis (%) ([1]; compound at 1 × 10^-4): 98.8% | Inhibition of complement mediated hemolysis (%) ([1]; compound at 1 × 10^-5): 81.7% | Inhibition of complement mediated hemolysis (%) ([1]; compound at 1 × 10^-6): 12.7% | Inhibition of complement mediated hemolysis (%) ([1]; compound at 1 × 10^-7): 0%

SMILES: COc1cc(C(=N)N)ccc1OC(=O)C1CCCCC1 [Compound 9]
Inhibition of complement mediated hemolysis (%) ([1]; compound at 1 × 10^-5): 16.2% | Inhibition of complement mediated hemolysis (%) ([1]; compound at 1 × 10^-6): 2.5% | Inhibition of complement mediated hemolysis (%) ([1]; compound at 1 × 10^-7): 0%

SMILES: CC(C(=O)Oc1ccc(C(=N)N)cc1C(=O)c1ccccc1)c1ccc(Cl)cc1 (stereo not drawn) [Compound 86]
Inhibition of complement mediated hemolysis (%) ([1]; compound at 1 × 10^-4): 100% | Inhibition of complement mediated hemolysis (%) ([1]; compound at 1 × 10^-5): 97.1% | Inhibition of complement mediated hemolysis (%) ([1]; compound at 1 × 10^-6): 53.6% | Inhibition of complement mediated hemolysis (%) ([1]; compound at 1 × 10^-7): 11.0%

SMILES: CCCCCCC(=O)Oc1ccc(C(=N)N)cc1C(=O)c1ccccc1 [Compound 4]
Inhibition of complement mediated hemolysis (%) ([1]; compound at 1 × 10^-4): 95.0% | Inhibition of complement mediated hemolysis (%) ([1]; compound at 1 × 10^-5): 67.2% | Inhibition of complement mediated hemolysis (%) ([1]; compound at 1 × 10^-6): 8.7% | Inhibition of complement mediated hemolysis (%) ([1]; compound at 1 × 10^-7): 0%

SMILES: N=C(N)c1ccc(OC(=O)c2ccc(S(N)(=O)=O)cc2)c([N+](=O)[O-])c1 [Compound 68]
Inhibition of complement mediated hemolysis (%) ([1]; compound at 1 × 10^-4): 100% | Inhibition of complement mediated hemolysis (%) ([1]; compound at 1 × 10^-5): 92.9% | Inhibition of complement mediated hemolysis (%) ([1]; compound at 1 × 10^-6): 50.6% | Inhibition of complement mediated hemolysis (%) ([1]; compound at 1 × 10^-7): 5.8%

SMILES: N=C(N)Nc1ccc(C(=O)Nc2cc(C(=N)N)ccc2OC(=O)c2ccc(NC(=N)N)cc2)cc1 [Compound 73, 4-amidino-2-(4-guanidinobenzoylamino)phenyl 4-guanidinobenzoate]
Inhibition of complement mediated hemolysis (%) ([1]; compound at 1 × 10^-4): 100% | Inhibition of complement mediated hemolysis (%) ([1]; compound at 1 × 10^-5): 100% | Inhibition of complement mediated hemolysis (%) ([1]; compound at 1 × 10^-6): 89.9% | Inhibition of complement mediated hemolysis (%) ([1]; compound at 1 × 10^-7): 46.1%

SMILES: CC(C)Cc1ccc(C(C)C(=O)Oc2ccc(C(=N)N)cc2C(=O)c2ccccc2)cc1 (stereo not drawn) [Compound 40]
Inhibition of complement mediated hemolysis (%) ([1]; compound at 1 × 10^-4): 87.5% | Inhibition of complement mediated hemolysis (%) ([1]; compound at 1 × 10^-5): 68.1% | Inhibition of complement mediated hemolysis (%) ([1]; compound at 1 × 10^-6): 7.8% | Inhibition of complement mediated hemolysis (%) ([1]; compound at 1 × 10^-7): 2.0%

SMILES: CN(C(=N)N)c1ccc(C(=O)Oc2ccc(C(=N)N)cc2C(=O)c2ccccc2)cc1 [Compound 78]
IC50 [2]: > 10 µM | Inhibition of complement mediated hemolysis (%) ([1]; compound at 1 × 10^-4): 97.4% | Inhibition of complement mediated hemolysis (%) ([1]; compound at 1 × 10^-5): 58.8% | Inhibition of complement mediated hemolysis (%) ([1]; compound at 1 × 10^-6): 7.0% | Inhibition of complement mediated hemolysis (%) ([1]; compound at 1 × 10^-7): 0%

SMILES: CC(=O)c1ccc(C(=O)Oc2ccc(C(=N)N)cc2C(=O)c2ccccc2)cc1 [Compound 53]
Inhibition of complement mediated hemolysis (%) ([1]; compound at 1 × 10^-4): 87.5% | Inhibition of complement mediated hemolysis (%) ([1]; compound at 1 × 10^-5): 25.2% | Inhibition of complement mediated hemolysis (%) ([1]; compound at 1 × 10^-7): 3.5%

SMILES: N=C(N)c1ccc(OC(=O)c2ccc(S(N)(=O)=O)cc2)c(C(=O)c2ccccc2)c1 [Compound 67]
Inhibition of complement mediated hemolysis (%) ([1]; compound at 1 × 10^-4): 99.2% | Inhibition of complement mediated hemolysis (%) ([1]; compound at 1 × 10^-5): 99.2% | Inhibition of complement mediated hemolysis (%) ([1]; compound at 1 × 10^-6): 96.9% | Inhibition of complement mediated hemolysis (%) ([1]; compound at 1 × 10^-7): 57.5%

SMILES: Cc1cccc(C(=O)Oc2ccc(C(=N)N)cc2[N+](=O)[O-])c1 [Compound 36]
Inhibition of complement mediated hemolysis (%) ([1]; compound at 1 × 10^-4): 100% | Inhibition of complement mediated hemolysis (%) ([1]; compound at 1 × 10^-5): 100% | Inhibition of complement mediated hemolysis (%) ([1]; compound at 1 × 10^-6): 100% | Inhibition of complement mediated hemolysis (%) ([1]; compound at 1 × 10^-7): 90.4%

SMILES: COc1ccccc1C(=O)Oc1ccc(C(=N)N)cc1C(=O)c1ccccc1 [Compound 41]
Inhibition of complement mediated hemolysis (%) ([1]; compound at 1 × 10^-4): 66.7% | Inhibition of complement mediated hemolysis (%) ([1]; compound at 1 × 10^-5): 9.3% | Inhibition of complement mediated hemolysis (%) ([1]; compound at 1 × 10^-6): 0% | Inhibition of complement mediated hemolysis (%) ([1]; compound at 1 × 10^-7): 0%

IC50 [2]: > 10 µM
SMILES: CNC(=S)Nc1ccc(C(=O)Oc2ccc(C(=N)N)cc2C(=O)c2ccccc2)cc1 [Compound 79]
Inhibition of complement mediated hemolysis (%) ([1]; compound at 1 × 10^-4): 95.1% | Inhibition of complement mediated hemolysis (%) ([1]; compound at 1 × 10^-5): 96.8% | Inhibition of complement mediated hemolysis (%) ([1]; compound at 1 × 10^-6): 81.7% | Inhibition of complement mediated hemolysis (%) ([1]; compound at 1 × 10^-7): 48.1%

SMILES: CC(=O)N[C@@H](CC(C)C)C(=O)N[C@@H](CC(C)C)C(=O)N[C@H](C=O)CCCNC(=N)N [Leupeptin, reference compound]
Inhibition of complement mediated hemolysis (%) ([1]; compound at 1 × 10^-4): 97% | Inhibition of complement mediated hemolysis (%) ([1]; compound at 1 × 10^-5): 52% | Inhibition of complement mediated hemolysis (%) ([1]; compound at 1 × 10^-6): 0% | Inhibition of complement mediated hemolysis (%) ([1]; compound at 1 × 10^-7): 0%
